{
  "source": "ChEMBL document CHEMBL1151362",
  "about": "“Catharanthus alkaloids. XXXIV. Catharanthamine, a new antitumor bisindole alkaloid from Catharanthus roseus” (1981)",
  "key": {"[1]": {"tested_on": "KB", "experiment": "Cytotoxicity against human KB cells", "format": "functional, cell-based"}, "[2]": {"tested_on": "P388", "experiment": "In vivo antitumor activity against mouse P388 cells at 1 mg/kg relative to control", "format": "functional"}},
  "note": "Calls of active or inactive are those of the source. The calls are words filed in the database; no cut-off is given here.",
  "data": [
    {"smiles": "CC[C@]12C[C@H]3CN(CCc4c([nH]c5ccccc45)[C@@](C(=O)OC)(c4cc5c(cc4OC)N(C)[C@H]4[C@@](O)(C(=O)OC)[C@H](OC(C)=O)[C@]6(CC)C=CCN7CC[C@]54[C@@H]76)[C@@H]3O1)C2", "note": "[CATHARANTHAMINE]", "values": [
      {"measurement": "Activity", "setting": "[1]", "result": "Active"},
      {"measurement": "T/C", "setting": "[2]", "result": 176, "unit": "%"}
    ]}
  ]
}
